Laboratory results reported in patent US9796704B2, “Substituted quinazolines as receptor-type kinase inhibitors” (Symphony Evolution, Inc., priority 2002, dated 2017).

What was measured:
KDR = KDR (Homo sapiens (Human), UniProt P35968); experiment: KDR kinase inhibition, luciferase-coupled chemiluminescent assay (LCCA); details: read-out: KDR IC50
Protocol: (§1) Kinase activity and compound inhibition are investigated using one or more of the three assay formats described below. The ATP concentrations are selected near its Michaelis-Menten constant (KM) for each individual kinase. Dose-response experiments are performed at ten different inhibitor concentrations in a 384-well plate format. […] Typically H is close to unity.
(§2) In the LCCA assays, kinase activity is measured by the ATP consumption that is accurately measured by luciferase-coupled chemiluminescence. Greiner 384-well white clear bottom medium binding plates are used for LCCA. Briefly the kinase reaction is initiated by mixing compounds, ATP and kinases in a 20 μL volume. At the end of the kinase reaction, a 20 μL luciferase-luciferin mix is added and the chemiluminescent signal is read on a Wallac Victor^2 reader.

EGFR = EGFR (Homo sapiens (Human), UniProt P00533); experiment: EGFR kinase inhibition, luciferase-coupled chemiluminescent assay (LCCA); details: read-out: EGFR IC50
Protocol: as §1, §2

EphB4 = EphB4 (Homo sapiens (Human), UniProt P54760); experiment: EphB4 kinase inhibition, 33P phosphoryl transfer assay (radiometric); assay type: biochemical
EphA2 = EphA2 (Homo sapiens (Human), UniProt P29317); experiment: EphA2 kinase inhibition, luciferase-coupled chemiluminescent assay (LCCA); details: read-out: EphA2 IC50
Sequence of EphA2 (P29317 598-890): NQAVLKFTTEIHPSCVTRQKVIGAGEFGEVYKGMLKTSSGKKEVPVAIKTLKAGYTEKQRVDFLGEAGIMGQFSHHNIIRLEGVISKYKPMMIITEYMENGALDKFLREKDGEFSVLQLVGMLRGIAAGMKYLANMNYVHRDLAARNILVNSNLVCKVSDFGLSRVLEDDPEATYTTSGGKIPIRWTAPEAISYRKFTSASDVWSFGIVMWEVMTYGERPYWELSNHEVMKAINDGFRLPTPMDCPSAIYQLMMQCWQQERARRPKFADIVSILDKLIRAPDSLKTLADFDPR
Protocol: as §1, §2

Sequence of EphB4 (P54760 605-890): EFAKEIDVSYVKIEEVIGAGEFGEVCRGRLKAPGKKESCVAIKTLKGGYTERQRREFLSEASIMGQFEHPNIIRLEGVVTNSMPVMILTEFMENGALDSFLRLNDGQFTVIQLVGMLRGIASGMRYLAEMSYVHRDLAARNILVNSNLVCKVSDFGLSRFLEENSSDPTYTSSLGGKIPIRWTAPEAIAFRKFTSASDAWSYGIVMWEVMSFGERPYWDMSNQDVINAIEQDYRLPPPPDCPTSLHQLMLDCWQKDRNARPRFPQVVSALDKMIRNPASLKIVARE
Sequence of KDR (P35968 807-1356): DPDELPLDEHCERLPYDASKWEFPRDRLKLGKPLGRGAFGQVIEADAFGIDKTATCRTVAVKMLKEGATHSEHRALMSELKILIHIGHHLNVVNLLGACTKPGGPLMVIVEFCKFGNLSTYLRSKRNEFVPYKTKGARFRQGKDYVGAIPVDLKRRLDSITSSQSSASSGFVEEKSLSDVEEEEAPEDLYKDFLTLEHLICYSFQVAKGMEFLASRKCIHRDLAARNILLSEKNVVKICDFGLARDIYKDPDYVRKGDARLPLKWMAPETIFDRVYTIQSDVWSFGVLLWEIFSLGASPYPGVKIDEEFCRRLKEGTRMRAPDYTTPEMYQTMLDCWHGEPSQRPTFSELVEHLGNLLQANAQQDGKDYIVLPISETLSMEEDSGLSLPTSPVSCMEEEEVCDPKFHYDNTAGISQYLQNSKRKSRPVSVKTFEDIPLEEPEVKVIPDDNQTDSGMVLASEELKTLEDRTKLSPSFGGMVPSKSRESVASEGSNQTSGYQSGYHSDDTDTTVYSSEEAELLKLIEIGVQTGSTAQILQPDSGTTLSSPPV
Sequence of EGFR (P00533 672-1210): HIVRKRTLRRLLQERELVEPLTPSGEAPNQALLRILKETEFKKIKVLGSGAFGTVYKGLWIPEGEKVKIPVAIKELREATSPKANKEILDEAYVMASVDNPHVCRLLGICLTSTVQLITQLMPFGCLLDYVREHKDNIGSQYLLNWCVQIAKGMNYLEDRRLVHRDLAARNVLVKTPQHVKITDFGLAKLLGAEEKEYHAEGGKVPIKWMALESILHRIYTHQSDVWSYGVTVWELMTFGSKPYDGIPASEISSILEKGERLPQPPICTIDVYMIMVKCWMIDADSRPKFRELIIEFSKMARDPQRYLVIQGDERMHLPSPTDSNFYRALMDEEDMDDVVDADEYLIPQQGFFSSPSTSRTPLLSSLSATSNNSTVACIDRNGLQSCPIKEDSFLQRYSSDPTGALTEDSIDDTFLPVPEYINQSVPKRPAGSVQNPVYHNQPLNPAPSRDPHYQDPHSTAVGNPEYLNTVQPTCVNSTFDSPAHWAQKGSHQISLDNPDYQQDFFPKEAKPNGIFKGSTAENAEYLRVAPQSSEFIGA

IC50 (KDR) [nM] | IC50 (EGFR) [nM] | IC50 (EphB4) [nM] | IC50 (EphA2) [nM] | Compound
< 50 |  |  |  | COc1cc2c(Nc3ccc(Br)c(Cl)c3)ncnc2cc1O[C@H]1CO[C@H]2[C@@H]1OC[C@@H]2OC [Example 73, 1,4:3,6-dianhydro-2-O-[4-[(4-bromo-3-chlorophenyl)amino]-6-(methyloxy)quinazolin-7-yl]-5-O-methyl-L-iditol]
< 50 |  |  |  | COc1cc2c(Nc3ccc(Br)c(Cl)c3)ncnc2cc1O[C@H]1CO[C@H]2[C@@H]1OC[C@H]2OC [Example 78, 1,4:3,6-dianhydro-2-O-[4-[(4-bromo-3-chlorophenyl)amino]-6-(methyloxy)quinazolin-7-yl]-5-O-methyl-D-glucitol]
< 50 | < 50 |  |  | COc1cc2c(Nc3c(F)cccc3F)ncnc2cc1O[C@@H]1CO[C@@H]2[C@H]1OC[C@H]2F [Example 87, 1,4:3,6-dianhydro-2-deoxy-5-O-[4-[(2,6-difluorophenyl)amino]-6-(methyloxy)quinazolin-7-yl]-2-fluoro-D-iditol]
< 50 | < 50 |  |  | COc1cc2c(Nc3ccc(F)cc3F)ncnc2cc1O[C@@H]1CO[C@@H]2[C@H]1OC[C@H]2F [Example 90, 1,4:3,6-dianhydro-2-deoxy-5-O-[4-[(2,4-difluorophenyl)amino]-6-(methyloxy)quinazolin-7-yl]-2-fluoro-D-iditol]
< 50 | < 50 |  |  | COc1cc2c(Nc3ccc(Cl)cc3F)ncnc2cc1O[C@@H]1CO[C@@H]2[C@H]1OC[C@H]2F [Example 109, 1,4:3,6-dianhydro-5-O-[4-[(4-chloro-2-fluorophenyl)amino]-6-(methyloxy)quinazolin-7-yl]-2-deoxy-2-fluoro-D-iditol]
< 50 | < 50 |  |  | COc1cc2c(Nc3c(F)cc(F)cc3Br)ncnc2cc1O[C@@H]1CO[C@@H]2[C@H]1OC[C@H]2F [Example 120, 1,4:3,6-dianhydro-5-O-[4-[(2-bromo-4,6-difluorophenyl)amino]-6-(methyloxy)quinazolin-7-yl]-2-deoxy-2-fluoro-D-iditol]
< 50 | < 50 |  |  | COc1cc2c(Nc3cc(C(F)(F)F)ccc3Cl)ncnc2cc1O[C@@H]1CO[C@@H]2[C@H]1OC[C@H]2F [Example 122, 1,4:3,6-dianhydro-5-O-[4-{[2-chloro-5-(trifluoromethyl)phenyl]amino}-6-(methyloxy)quinazolin-7-yl]-2-deoxy-2-fluoro-D-iditol]
< 50 | < 50 |  |  | COc1ccc(OC)c(Nc2ncnc3cc(O[C@@H]4CO[C@@H]5[C@H]4OC[C@H]5F)c(OC)cc23)c1 [Example 134, 1,4:3,6-dianhydro-5-O-[4-{[2,5-bis(methyloxy)phenyl]amino}-6-(methyloxy)quinazolin-7-yl]-2-deoxy-2-fluoro-D-iditol]
< 50 | < 50 |  |  | COc1cc2c(Nc3ccc(Cl)c(Cl)c3)ncnc2cc1OCc1noc(C(C)(C)C)n1 [Example 157, N-(3,4-dichlorophenyl)-7-({[5-(1,1-dimethylethyl)-1,2,4-oxadiazol-3-yl]methyl}oxy)-6-(methyloxy)quinazolin-4-amine]
 | < 50 | 50 to 1000 | 1000 to 20000 | COc1cc2c(Nc3ccc(Cl)c(Cl)c3)ncnc2cc1OCc1noc(C2CCCN2)n1 (stereo not shown) [Example 263, N-(3,4-dichlorophenyl)-6-(methyloxy)-7-{[(5-pyrrolidin-2-yl-1,2,4-oxadiazol-3-yl)methyl]oxy}quinazolin-4-amine]
 | < 50 | 50 to 1000 | 1000 to 20000 | CCN1CCCC1c1nc(COc2cc3ncnc(Nc4ccc(Cl)c(Cl)c4)c3cc2OC)no1 (stereo not shown) [Example 264, N-(3,4-dichlorophenyl)-7-({[5-(1-ethylpyrrolidin-2-yl)-1,2,4-oxadiazol-3-yl]methyl}oxy)-6-(methyloxy)quinazolin-4-amine]
 | < 50 | 50 to 1000 | 1000 to 20000 | COc1cc2c(Nc3ccc(Cl)c(Cl)c3)ncnc2cc1OCc1nc([C@@H]2CCCN2C)no1 [Example 265, N-(3,4-dichlorophenyl)-6-(methyloxy)-7-[({3-[(2S)-1-methylpyrrolidin-2-yl]-1,2,4-oxadiazol-5-yl}methyl)oxy]quinazolin-4-amine]
 | < 50 | 50 to 1000 | 1000 to 20000 | COc1cc2c(Nc3ccc(Cl)c(Cl)c3)ncnc2cc1OCc1csc([C@@H]2CCCN2C)n1 [Example 266, N-(3,4-dichlorophenyl)-6-(methyloxy)-7-[({2-[(2S)-1-methylpyrrolidin-2-yl]-1,3-thiazol-4-yl}methyl)oxy]quinazolin-4-amine]
 | < 50 | 1000 to 20000 | 1000 to 20000 | CCN1CCN(c2nc(COc3cc4ncnc(Nc5ccc(Cl)c(Cl)c5)c4cc3OC)cs2)CC1 [Example 267, N-(3,4-dichlorophenyl)-7-({[2-(4-ethylpiperazin-1-yl)-1,3-thiazol-4-yl]methyl}oxy)-6-(methyloxy)quinazolin-4-amine]
 | < 50 | 50 to 1000 | 1000 to 20000 | COc1cc2c(Nc3ccc(Cl)c(Cl)c3)ncnc2cc1OCC1CN(C)CCN1C (stereo not shown) [Example 268, N-(3,4-dichlorophenyl)-7-{[(1,4-dimethylpiperazin-2-yl)methyl]oxy}-6-(methyloxy)quinazolin-4-amine]
 | < 50 | 50 to 1000 | 1000 to 20000 | COc1cc2c(Nc3ccc(Cl)c(Cl)c3)ncnc2cc1OCC1CN(C(C)C)CCO1 (stereo not shown) [Example 270, N-(3,4-dichlorophenyl)-7-({[4-(1-methylethyl)morpholin-2-yl]methyl}oxy)-6-(methyloxy)quinazolin-4-amine]
 | < 50 | 50 to 1000 | 1000 to 20000 | COc1cc2c(Nc3ccc(Cl)c(Cl)c3)ncnc2cc1OCC1CN(CCCc2ccccc2)CCO1 (stereo not shown) [Example 271, N-(3,4-dichlorophenyl)-6-(methyloxy)-7-({[4-(3-phenylpropyl)morpholin-2-yl]methyl}oxy)quinazolin-4-amine]
 | < 50 | 50 to 1000 | 1000 to 20000 | COCCN1CCOC(COc2cc3ncnc(Nc4ccc(Cl)c(Cl)c4)c3cc2OC)C1 (stereo not shown) [Example 272, N-(3,4-dichlorophenyl)-6-(methyloxy)-7-[({4-[2-(methyloxy)ethyl]morpholin-2-yl}methyl)oxy]quinazolin-4-amine]
 | < 50 | 1000 to 20000 | 1000 to 20000 | CCOC(=O)C(C)N1CCOC(COc2cc3ncnc(Nc4ccc(Cl)c(Cl)c4)c3cc2OC)C1 (stereo not shown) [Example 273, ethyl 2-[2-({[4-[(3,4-dichlorophenyl)amino]-6-(methyloxy)quinazolin-7-yl]oxy}methyl)morpholin-4-yl]propanoate]
 | < 50 | 1000 to 20000 | 1000 to 20000 | COc1cc2c(Nc3ccc(Cl)c(Cl)c3)ncnc2cc1OCC1CN(CCOCCO)CCO1 (stereo not shown) [Example 275, 2-({2-[2-({[4-[(3,4-dichlorophenyl)amino]-6-(methyloxy)quinazolin-7-yl]oxy}methyl)morpholin-4-yl]ethyl}oxy)ethanol]
 | < 50 | 50 to 1000 | 1000 to 20000 | COc1cc2c(Nc3ccc(Cl)c(Cl)c3)ncnc2cc1OCC1CN(CCCCCC#N)CCO1 (stereo not shown) [Example 277, 6-[2-({[4-[(3,4-dichlorophenyl)amino]-6-(methyloxy)quinazolin-7-yl]oxy}methyl)morpholin-4-yl]hexanenitrile]
